Source: US6713504B2, “Antifungal molecule 2-(3,4-dimethyl-2,5-dihydro-1H-pyrrol-2-yl)-1-methylethyl pentanoate” (Council of Scientific & Industrial Research, priority 2002, dated 2004)
Converted amounts (≈) assume the structure as drawn.

Tests used:
[1] = tested on: Aspergillus species; test: Spore germination inhibition assay; type: cell-based; details: 10 hrs incubation
Experimental: (§1) Pathogenic strains of fungi were obtained from the Mycology Department of Vallabhbhai Patel Chest Institute, Delhi. All the strains were grown on Sabouraud dextrose agar at 37° C. The conidia form these cultures were harvested and suspended in Sabouraud maltose broth. The number of conidia was counted using haemocytometer and their number in the suspension was adjusted to as per need of the experiment.
The modified spore germination inhibition assay was performed as described earlier (Sureder P. and Janaiah C., 1987, Ind. J. Expt. Biol., 25, 233-234). The fungal species were grown on Sabouraud dextrose agar plates at 37° C. for 96 h. […] The conidia were counted and their number in the suspension was adjusted to 1×10^4 per ml. The standard drug Amphotericin B and test samples were initially dissolved in minimal quantity of dimethylsulfoxide (DMSO) and then diluted with Sabouraud dextrose medium. […] The number of germinated and non-germinated spores was counted. The percent spore germination inhibition (PSGI) was calculated using following formula [formula]
Antifungal Activity of Pure Compound by Spore Germination Inhibition Assay The spore germination inhibition assay was performed to evaluate the activity of the compound. […] The number of germinated and non-germinated spores was counted and the percent spore germination inhibition (PSGI) was calculated. […]

[2] = tested on: A. niger; test: Microbroth dilution assay; type: cell-based; design: key to Activity of the compound against Aspergillus sp. after 48 hrs.: +ve if medium appeared clear with out any growth of fungi; −ve if growth was there
Experimental: as §1
(§2) The antifungal susceptibility of the fungi to various fractions or the purified component was assayed by the microbroth dilution method (Forthergill A. W. and McGough A. W., 1995, Clin. Microbiol. Procedure Handbook. In Vitro susceptibility Testing of Yeast, 5.15.1-5.15.15). The fungal spores were harvested from 96-h cultures and their number adjusted to 1×10^6 per ml. The Sabouraud Dextrose medium was dissolved in glass double distilled water and autoclaved at 10 psi for 15 min. 90-μl medium was added into the wells of cell culture plates. The different concentrations of the extract, fractions or the purified compound were prepared in duplicate wells and then the wells were inoculated with 10 μl of spore suspension. The plates were incubated at 37° C. and examined macroscopically after 48 h for the growth of fungal mycelia. The activity was represented as −ve if growth was there and +ve if medium appeared clear with out any growth of fungi.
(§3) The antifungal susceptibility of the fungi to the purified compound was assayed by the microbroth dilution method. The different concentrations of the purified compound ranging from 21.87 to 350 μg/ml were prepared in duplicate wells by twofold dilution method. The test was done as described above.

[3] = tested on: A. flavus; test: Microbroth dilution assay; type: cell-based; design: key to Activity of the compound against Aspergillus sp. after 48 hrs.: +ve if medium appeared clear with out any growth of fungi; −ve if growth was there
Experimental: as §1, §2, §3

[4] = tested on: A. fumigatus; test: Microbroth dilution assay; type: cell-based; design: key to Activity of the compound against Aspergillus sp. after 48 hrs.: +ve if medium appeared clear with out any growth of fungi; −ve if growth was there
Experimental: as §1, §2, §3

[5] = tested on: A. niger; test: Disc diffusion assay; type: cell-based
Experimental: as §1
(§4) The disc diffusion test was performed as per described in the section of details of invention. Amphotericin B 1.25 μg/disc was used in assay as positive control standard drug. Additional discs impregnated with equivalent amount of solvent were also used in the assay as negative controls (FIG. 5).

[6] = tested on: A. flavus; test: Disc diffusion assay; type: cell-based; details: concentration developing zone of inhibition of 6.0-mm diameter
Experimental: as §1, §4

[7] = tested on: A. fumigatus infection; test: Quantification of colony forming units in organs of infected mice; type: in vivo, Balb/C mice
Description: In vivo efficacy of the compound against A. fumigatus infection was studied in the Balb/C mice of 6-8 weak of age of either sex, weighing 15-20 g each. The mice model of aspergillosis described by Dixon et al (1989), was used to study the effects of compound on in vivo infection of A. fumigatus.
The animals were housed in the micro-barrier cages on sterile bedding and fed ad libitum water and food. The mice were divided into 6 groups and each group contained 8-10 animals. The mice were infected experimentally with A. fumigatus. Three days prior to infection with conidia, mice were injected subcutaneously with 3 doses (250.0 mg/kg/day) of cortisone acetate in 400.0 μl of PBS. On the infection day, each mouse received 2×10^7 conidia by nasal instillation of a single droplet of conidial suspension. The animals of this model developed invasive aspergillosis and all the infected animals died within 4-6 days.
The mice were kept under constant watch and those getting moribund, dying or survived up to 10 days were sacrificed. The autopsy was performed on the mice who had died to remove their organs for quantification of colony forming units (CFU). The lungs, livers and kidneys of the mice were removed aseptically, placed in sterile PBS (pH 7.2) and homogenized with teflon pestle mortar. The CFU in the animals were determined by plating 10 fold dilutions of organ homogenates on Sabouraud dextrose agar containing 0.05% triton X-100. The triton X-100 limited the colony size and thus greatly facilitated colony counting (Frosco, 1992). After an incubation for 48 h at 37° C., colonies were counted and results were expressed as CFU per organ.
The fungal burden in the organs of the animals, which died or became moribund during study or those survived up to 10th day, was determined. The lungs, livers and kidneys of the animals were isolated, homogenized and the homogenate was used to culture the pathogen on Sabouraud dextrose agar plates. The colonies of the fungus were counted and expressed as colony forming units (CFU)/organ.

CCCCC(=O)OC(C)CC1NCC(C)=C1C (centres unmarked) [PC-1, 2-(3,4-dimethyl-2,5-dihydro-1H-pyrrol-2-yl)-1-methylethyl pentanoate]
MIC by percent spore germination inhibition [1]: 87.5 µg/mL (≈ 366 µM)
Activity of the compound against Aspergillus sp. after 48 hrs. ([2]; 21.87 μg/ml): −
Activity of the compound against Aspergillus sp. after 48 hrs. ([2]; 43.75 μg/ml): −
MIC ([2]; Aspergillus niger, no visual growth, 48 h): 87.5 µg/mL (≈ 366 µM)
Activity of the compound against Aspergillus sp. after 48 hrs. ([3]; 21.87 μg/ml): −
Activity of the compound against Aspergillus sp. after 48 hrs. ([3]; 43.75 μg/ml): −
MIC ([3]; Aspergillus flavus, no visual growth, 48 h): 87.5 µg/mL (≈ 366 µM)
Activity of the compound against Aspergillus sp. after 48 hrs. ([4]; 21.87 μg/ml): −
Activity of the compound against Aspergillus sp. after 48 hrs. ([4]; 43.75 μg/ml): −
MIC ([4]; Aspergillus fumigatus, no visual growth, 48 h): 87.5 µg/mL (≈ 366 µM)
zone of inhibition at 20 µg/disc ([5]; Aspergillus niger, 20.0 μg/disc, 48 hrs, read-out: Diameter of zone of inhibition): 9.4 mm
MIC by disc diffusion assay ([5]; concentration developing zone of inhibition of 6.0-mm diameter): 5 μg/disc
MIC by disc diffusion assay [6]: 5 μg/disc
effect on colony counts in lung as compared to controls ([7]; 400 mg/kg body weight, p<0.001): reduced the colony counts significantly
effect on number of CFUs in kidneys ([7]; 100.0 to 400.0 mg/kg body weight): significant reduction
effect on the CFUs in the lung tissue ([7]; doses of 25.0 and 50.0 mg/kg body weight): did not have any effect
effect on CFUs in liver ([7]; liver): very less effect
